*1 amine or outer side, *2 acyl side, *3 side chain or, on linkers, in order; H or OH if unused. Where a SMILES comes first, the peptide text is derived from it. Bridges are numbered along the chain shown (N, C = ends). Roman numbers before positions name the chains, in order. [ ]: non-standard residue; d: D form. ξ: configuration not given here. CO(CH2CH2O)13CH2CH2CO = O=C(CCOCCOCCOCCOCCOCCOCCOCCOCCOCCOCCOCCOCCOCCC(=O)[*:2])[*:1]; X1 = O=C(OCCOCCOCCOCCOCCOCCOCCOCCOCCOCCOCCOCCOC(=O)[*:2])[*:1]; PEG8 = NCCOCCOCCOCCOCCOCCOCCOCCOCCC(=O)O; 3Pal = N[C@@H](Cc1cccnc1)C(=O)O; ξK = NCCCCC(N)C(=O)O; ξP = O=C(O)C1CCCN1; ξC = NC(CS)C(=O)O
Tests used:
Format in all cases: cell-based
[1] = biological target: T1, TrkB (CellSensor TrkB-NFAT-bla CHO-K1 Cell) (Homo sapiens, UniProt Q16620); test: pERK1/2 AlphaLISA assay (phosphorylation of ERK) for TrkB agonist activity; conditions: class = peptide concentration giving 50% or more activity; BDNF maximum signal = 100%, no stimulation = 0%; 15 minutes of stimulation
T1 construct: host or cells: CHO-K1 (CellSensor TrkB-NFAT-bla CHO-K1)
Procedure: To evaluate the TrkB activation potency of the TrkB agonist peptide of the present invention, the phosphorylation of ERK was examined. CellSensor (registered trademark) TrkB-NFAT-bla CHO-K1 Cell (Invitrogen) was cultured in DMEM, high glucose, GlutaMAX (registered trademark) Supplement, and pyruvate (Thermo), comprising 10% FBS (Thermo) and 1× Non-essential amino acids (Thermo), 25 mM HEPES (Thermo), 50 ug/mL Gentamicin, 5 ug/mL Blasticidin (Thermo), and 200 ug/mL Zeocin (Thermo). After the cells were detached using Accutase (Innovative Cell Technologies), they were seeded into a 96-well plate for adherent cultures at 12,500 cells per well and cultured overnight. The next day, for starvation, the culture solution above was replaced with a nutrient starvation medium comprising 0.1% BSA (Sigma), wherein FBS, Blasticidin, and Zeocin were removed from the culture medium, and culturing was performed for 4 hours. Thereafter, Recombinant Human BDNF Protein (R&D Systems) or a peptide was added, and after 15 minutes of stimulation, cells were lysed in the Lysis Buffer provided with the AlphaLISA SureFire Ultra p-Erk1/2 (Thr202/Tyr204) assay kit (PerkinElmer). The assay was performed according to the kit protocol. The signals were detected using a SpectraMax Paradigm Multi-Mode Microplate Reader (Molecular Devices). The obtained signals were analyzed with GraphPad Prism, and the activity (%) was calculated with the maximum value of the signals induced by BDNF as 100% and a signal with no stimulation as 0%. The peptide with 50% or more activity when 1 nM of the peptide was added was evaluated as A, and the peptide with 50% or more activity when 10 nM of the peptide was added was evaluated as B.
The BDNF was evaluated at 8 points (0.0006 nM to 10 nM) from 10 nM using 4-fold dilutions.
(§1) For dimer structures Nos. 1 to 3, the peptide was evaluated at 1 nM, 10 nM, and 100 nM, and, for other dimer structure numbers, the peptide was evaluated at 0.1 nM, 1 nM, and 10 nM. When creating the concentration dependence curve, the BDNF and the peptides were evaluated at 8 points (0.006 nM to 100 nM) from 100 nM using 4-fold dilutions.

[2] = biological target: TrkB (Homo sapiens, UniProt Q16620); test: PathHunter eXpress TrkB Functional Assay (phosphorylation of TrkB); conditions: stimulation for 3 hours; for Emax: maximum signal induced by BDNF = 100%
Outline: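 PathHunter TrkB cells, cultured 48 h, were stimulated 3 h with peptide or BDNF, then detection reagent added for 60 min at room temperature; luminescence read. Activity (%) scaled from unstimulated (0%) to maximal BDNF signal (100%); peptides tested over 0.006104-100 nM, 0.032-100 nM or 0.01-10 nM ranges.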

[3] = biological target: T1, TrkB (CellSensor TrkB-NFAT-bla CHO-K1 Cell); test: NFAT transcriptional reporter assay for TrkB agonist activity; conditions: class = peptide concentration giving 50% or more activity; BDNF maximum signal = 100%, no stimulation = 0%; 5 hours culture
Procedure: To evaluate the TrkB activation potency of the TrkB agonist peptide of the present invention, transcriptional activity was examined using transcriptional reporters. The CellSensor (registered trademark) TrkB-NFAT-bla CHO-K1 Cell (Invitrogen) used in the AlphaLISA assay was cultured in the medium above. After the cells were detached using Accutase (Innovative Cell Technologies), the cells were suspended in an assay medium, wherein Blasticidin and Zeocin were removed, then seeded into a 96-well plate for adherent cultures at 12,500 cells per well and cultured overnight. Then, BDNF or a peptide was added thereto, and the cells were further cultured in a CO2 incubator for 5 hours. After the 96-well plate was removed from the incubator and brought to room temperature, a detection reagent (LiveBLAzer (registered trademark)-FRET B/G (CCF4-AM) Substrate Mixture) was added while protected from the light, and the 96-well plate was incubated while protected from the light in a moisture box with a lid for 2 hours. For signal detection, a EnVision 2104 Multilabel Plate Reader (PerkinElmer) was used, and the ratio of fluorescence emission value (460 nm/535 nm) was calculated. The obtained numerical values were analyzed with GraphPad Prism, and the activity (%) was calculated with the maximum value of the signals induced by BDNF as 100% and a signal with no stimulation as 0%. The peptide with 50% or more activity when 1 nM of the peptide was added was evaluated as A, the peptide with 50% or more activity when 10 nM of the peptide was added was evaluated as B, and the peptide with 50% or more activity when 100 nM of the peptide was added was evaluated as C. Those that were not evaluated were listed as not tested.
The BDNF was evaluated at 7 points (0.0024 nM to 10 nM) from 10 nM using 4-fold dilutions.
as §1, with “at […]” for “at 8”, “[…]” for “from 100”

T1 sequence (Q16620 32-822): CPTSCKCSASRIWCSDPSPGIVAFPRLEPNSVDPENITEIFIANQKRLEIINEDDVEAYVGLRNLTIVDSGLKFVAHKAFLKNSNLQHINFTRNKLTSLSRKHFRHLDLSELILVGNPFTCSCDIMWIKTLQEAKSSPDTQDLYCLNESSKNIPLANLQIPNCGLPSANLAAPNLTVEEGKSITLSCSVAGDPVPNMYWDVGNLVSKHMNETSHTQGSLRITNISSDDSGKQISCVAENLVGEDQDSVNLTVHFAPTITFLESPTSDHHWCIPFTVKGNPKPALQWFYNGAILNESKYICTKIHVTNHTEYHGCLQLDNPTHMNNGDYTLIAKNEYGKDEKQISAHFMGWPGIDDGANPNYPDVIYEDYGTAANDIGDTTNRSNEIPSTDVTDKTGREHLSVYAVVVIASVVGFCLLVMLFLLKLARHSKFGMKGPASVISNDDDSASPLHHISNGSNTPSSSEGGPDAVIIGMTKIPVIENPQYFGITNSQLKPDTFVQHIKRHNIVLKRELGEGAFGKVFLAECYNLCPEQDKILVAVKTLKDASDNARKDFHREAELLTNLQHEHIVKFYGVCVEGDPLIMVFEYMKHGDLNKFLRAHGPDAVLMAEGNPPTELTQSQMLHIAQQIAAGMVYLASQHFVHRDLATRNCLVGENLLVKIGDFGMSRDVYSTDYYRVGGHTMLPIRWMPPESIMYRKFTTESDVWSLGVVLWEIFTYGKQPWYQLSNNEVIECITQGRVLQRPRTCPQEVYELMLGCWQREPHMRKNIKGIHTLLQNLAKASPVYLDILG
Chain of TrkB (Q16620 32-822): as above

Compound	pERK (aLISA) Assay Results [1]	Emax [2] [%]	EC50 [2] [nM]	NFAT Assay Results [3]
CC(C)[C@@H]1NC(=O)[C@H](Cc2cccnc2)NC(=O)[C@H](CCC(=O)O)NC(=O)[C@H](CO)NC(=O)[C@H](Cc2ccc(O)cc2)NC(=O)[C@H]([C@@H](C)O)NC(=O)C2CCCN2C(=O)[C@H](Cc2c[nH]c3ccccc23)NC(=O)[C@H](Cc2cccnc2)NC(=O)[C@H](Cc2ccc(O)cc2)NC(=O)[C@@H]2CCCN2C(=O)[C@H](CO)NC(=O)[C@H](Cc2ccccc2)NC(=O)CSC[C@@H](C(=O)NCC(=O)N[C@@H](CCCCNC(=O)CCOCCOCCOCCOCCOCCOCCOCCOCCOCCOCCOCCOCCOCCC(=O)NCCCC[C@H](NC(=O)CNC(=O)[C@@H]2CSCC(=O)N[C@@H](Cc3ccccc3)C(=O)N[C@@H](CO)C(=O)N3CCC[C@H]3C(=O)N[C@@H](Cc3ccc(O)cc3)C(=O)N[C@@H](Cc3cccnc3)C(=O)N[C@@H](Cc3c[nH]c4ccccc34)C(=O)N3CCC[C@H]3C(=O)N[C@@H]([C@@H](C)O)C(=O)N[C@@H](Cc3ccc(O)cc3)C(=O)N[C@@H](CO)C(=O)N[C@@H](CCC(=O)O)C(=O)N[C@@H](Cc3cccnc3)C(=O)N[C@@H](C(C)C)C(=O)N[C@@H](CCC(=O)O)C(=O)N2)C(N)=O)C(N)=O)NC(=O)[C@H](CCC(=O)O)NC1=O (some centres unmarked) [Dimer Structure No. 48] (I: {CH2CO}-FSPY[3Pal]WPTYSE[3Pal]VECGK-NH2 / II: {CH2CO}-FSPY[3Pal]W[ξP]TYSE[3Pal]VECGK-NH2; linker I:17-II:17 via CO(CH2CH2O)13CH2CH2CO; thioether I:N-I:15, II:N-II:15)	B (the peptide with 50% or more activity when 10 nM of the peptide was added was evaluated as B)	89	0.8 to 4	B (the peptide with 50% or more activity when 10 nM of the peptide was added was evaluated as B)
CC(C)[C@@H]1NC(=O)[C@H](Cc2cccnc2)NC(=O)[C@H](CCC(=O)O)NC(=O)[C@H](CO)NC(=O)[C@H](Cc2ccc(O)cc2)NC(=O)[C@H]([C@@H](C)O)NC(=O)[C@@H]2CCCN2C(=O)[C@H](Cc2c[nH]c3ccccc23)NC(=O)[C@H](Cc2cccnc2)NC(=O)[C@H](Cc2ccc(O)cc2)NC(=O)[C@@H]2CCCN2C(=O)[C@H](CCC(=O)O)NC(=O)[C@H](Cc2ccccc2)NC(=O)CSCC(C(=O)NCC(=O)N[C@@H](CCCCNC(=O)OCCOCCOCCOCCOCCOCCOCCOCCOCCOCCOCCOCCOC(=O)NCCCCC(NC(=O)CNC(=O)[C@@H]2CSCC(=O)N[C@@H](Cc3ccccc3)C(=O)N[C@@H](CCC(=O)O)C(=O)N3CCCC3C(=O)N[C@@H](Cc3ccc(O)cc3)C(=O)N[C@@H](Cc3cccnc3)C(=O)N[C@@H](Cc3c[nH]c4ccccc34)C(=O)N3CCCC3C(=O)N[C@@H]([C@@H](C)O)C(=O)N[C@@H](Cc3ccc(O)cc3)C(=O)N[C@@H](CO)C(=O)N[C@@H](CCC(=O)O)C(=O)N[C@@H](Cc3cccnc3)C(=O)N[C@@H](C(C)C)C(=O)N[C@@H](CCC(=O)O)C(=O)N2)C(N)=O)C(N)=O)NC(=O)[C@H](CCC(=O)O)NC1=O (some centres unmarked) [Dimer Structure No. 57] (I: {CH2CO}-FEPY[3Pal]WPTYSE[3Pal]VE[ξC]GK-NH2 / II: {CH2CO}-FE[ξP]Y[3Pal]W[ξP]TYSE[3Pal]VECG[ξK]-NH2; linker I:17-II:17 via X1; thioether I:N-I:15, II:N-II:15)	B (the peptide with 50% or more activity when 10 nM of the peptide was added was evaluated as B)	89	0.8 to 4	B (the peptide with 50% or more activity when 10 nM of the peptide was added was evaluated as B)
CC(C)[C@@H]1NC(=O)[C@H](Cc2cccnc2)NC(=O)[C@H](CCC(=O)O)NC(=O)[C@H](CO)NC(=O)[C@H](Cc2ccc(O)cc2)NC(=O)[C@H]([C@@H](C)O)NC(=O)[C@@H]2CCCN2C(=O)[C@H](Cc2c[nH]c3ccccc23)NC(=O)[C@H](Cc2cccnc2)NC(=O)[C@H](Cc2ccc(O)cc2)NC(=O)[C@@H]2CCCN2C(=O)[C@H](CCC(=O)O)NC(=O)[C@H](Cc2ccccc2)NC(=O)CSC[C@@H](C(=O)NCC(=O)N[C@@H](CCCCNC(=O)OCCOCCOCCOCCOCCOCCOCCOCCOCCOCCOCCOCCOC(=O)NCCCC[C@H](NC(=O)CNC(=O)[C@@H]2CSCC(=O)N[C@@H](Cc3ccccc3)C(=O)N[C@@H](CCC(=O)O)C(=O)N3CCC[C@H]3C(=O)N[C@@H](Cc3ccc(O)cc3)C(=O)N[C@@H](Cc3cccnc3)C(=O)N[C@@H](Cc3c[nH]c4ccccc34)C(=O)N3CCC[C@H]3C(=O)N[C@@H]([C@@H](C)O)C(=O)N[C@@H](Cc3ccc(O)cc3)C(=O)N[C@@H](CO)C(=O)N[C@@H](CCC(=O)O)C(=O)N[C@@H](Cc3cccnc3)C(=O)N[C@@H](C(C)C)C(=O)N[C@@H](CCC(=O)O)C(=O)N2)C(N)=O)C(N)=O)NC(=O)[C@H](CCC(=O)O)NC1=O [compound 57] (I: {CH2CO}-FEPY[3Pal]WPTYSE[3Pal]VECGK-NH2 / II: {CH2CO}-FEPY[3Pal]WPTYSE[3Pal]VECGK-NH2; linker I:17-II:17 via X1; thioether I:N-I:15, II:N-II:15)	A (The peptide with 50% or more activity when 1 nM of the peptide was added was evaluated as A)	99		A (The peptide with 50% or more activity when 1 nM of the peptide was added was evaluated as A)
CC(C)[C@@H]1NC(=O)[C@H](Cc2cccnc2)NC(=O)[C@H](CCC(=O)O)NC(=O)[C@H](CO)NC(=O)[C@H](Cc2ccc(O)cc2)NC(=O)[C@H]([C@@H](C)O)NC(=O)[C@@H]2CCCN2C(=O)[C@H](Cc2c[nH]c3ccccc23)NC(=O)[C@H](Cc2cccnc2)NC(=O)[C@H](Cc2ccc(O)cc2)NC(=O)[C@@H]2CCCN2C(=O)[C@H](CCC(=O)O)NC(=O)[C@H](Cc2ccccc2)NC(=O)CSC[C@@H](C(=O)NCC(=O)NCCOCCOCCOCCOCCOCCOCCOCCOCCC(=O)NCCCC[C@H](NC(=O)CCOCCOCCOCCOCCOCCOCCOCCOCCNC(=O)CNC(=O)[C@@H]2CSCC(=O)N[C@@H](Cc3ccccc3)C(=O)N[C@@H](CCC(=O)O)C(=O)N3CCC[C@H]3C(=O)N[C@@H](Cc3ccc(O)cc3)C(=O)N[C@@H](Cc3cccnc3)C(=O)N[C@@H](Cc3c[nH]c4ccccc34)C(=O)N3CCC[C@H]3C(=O)N[C@@H]([C@@H](C)O)C(=O)N[C@@H](Cc3ccc(O)cc3)C(=O)N[C@@H](CO)C(=O)N[C@@H](CCC(=O)O)C(=O)N[C@@H](Cc3cccnc3)C(=O)N[C@@H](C(C)C)C(=O)N[C@@H](CO)C(=O)N2)C(N)=O)NC(=O)[C@H](CO)NC1=O [compound 18] (I: {CH2CO}-FEPY[3Pal]WPTYSE[3Pal]VSCG[PEG8]K-NH2 / II: {CH2CO}-FEPY[3Pal]WPTYSE[3Pal]VSCG[PEG8]; amide I:18-II:C (inferred); thioether I:N-I:15, II:N-II:15 (inferred))	A (The peptide with 50% or more activity when 1 nM of the peptide was added was evaluated as A)	93		A (The peptide with 50% or more activity when 1 nM of the peptide was added was evaluated as A)

Reference: patent US20250282820A1, “PEPTIDE COMPLEX HAVING TRKB BINDING ACTIVITY” (PEPTIDREAM INC, priority 2022, published 2025)
